Measurements reported in PMC11640089, “JRM-28, a Novel HDAC2 Inhibitor, Upregulates Plasticity-Associated Proteins in Hippocampal Neurons and Enhances Morphological Plasticity via Activation of CREB: Implications for Alzheimer’s Disease” (Cells, 2024).
Where “and” joins values, the source holds several entries; their conditions need not be identical. Equal entries are not always repeated.

What was measured:
[1] = system: SHSY5Y human neuronal cells; test: MAP2 immunofluorescence/immunoblot, dendritic morphogenesis in SHSY5Y neurons; format: cell-based
Procedure: Primary neuronal cell culture was performed based on a protocol approved by the Institutional Animal Care and Use Committee (IACUC) of the University of Wisconsin-Milwaukee, Milwaukee, WI-53211, and by the guidelines set by the National Institute of Health. Embryonic day 18 (E18) fetuses were harvested, and hippocampal tissue was dissected from brains and then processed for single cell culture in poly-D-lysine-coated plates, as discussed elsewhere. Neuronal cells were maintained with B-27^TM-plus-supplemented complete neurobasal media for 7–10 days until fully differentiated. After that, the treatment with JRM-28 was performed. SHSY5Y cells were grown, maintained, and passaged with complete DMEM media (a bottle of DMEM supplemented with 10% FBS, 2 mM L-glutamine, and 100 units/mL antibiotics); otherwise, for neuronal differentiation study, SHSY5Y was seeded with complete neurobasal medium. For making AD neurons, commercially purchased (Axol Bioscience Ltd.) A246E psen1 neural stem cells (NSCs) were maintained with KnockOut^TM DMEM/F12 media supplemented with StemPro^TM Neural Supplement, bFGF, EGF, 2 mM GlutMAX^TM supplement, and 10 mL/L antibiotic-antimycotic solution. These […] NSCs were grown in a […] cell culture flask coated with Geltrex^TM matrix until fully confluent and then detached by Accutase, centrifuged, washed, and plated in a poly-D-lysine-coated plate supplemented with complete neurobasal media for neuronal differentiation. After one week, when neurons were differentiated, JRM-28 treatment was conducted.
Immunofluorescence analysis was performed as described earlier. Briefly, cells cultured on coverslip contained in six-well plates (Lab-Tek II) were fixed with 4% paraformaldehyde for 20 min followed by two rinses in TBST. Samples were incubated in a 1:1 solution of TBST and blocking buffer containing rabbit anti-NR2A (1:250), anti-GluR1 (1:250), ant-HDAC2 (1:250), anti-CREB (1:250), and anti-MAP2 (1:250) for 2 h at 37 °C. After three washes in PBST (15 min each), slides were further incubated with FIT-C and TRIT-C-conjugated secondary antibodies. […]

[2] = target: HDAC2 (Homo sapiens, UniProt Q92769); test: Fluorimetric HDAC inhibition assay, HDAC2; format: biochemical; parameters: purchased BPS Bioscience 50034 (HDAC Fluorogenic Assay Kit; enzyme supplied with kit); settings: reduced with DTT
Procedure: (§1) The inhibition of HDAC1, 2, 3, and 6 by JRM-28 was fluorometrically measured using the HDAC Fluorogenic Assay Kit (Catalog# 50034) by BPS bioscience. Purified recombinant human HDAC1 (Cat# 50051), HDAC3 (Cat# 50003), and HDAC6 (Cat# 50056) were also obtained from BPS Bioscience. The enzyme inhibition assay was performed according to the manufacturer’s protocol. […] Purified recombinant HDAC2 (supplied with the fluorogenic kit) was diluted to 6 ng/µL (5 µL/well with the supplied HDAC assay buffer). HDAC 1, 3, and 6 were also diluted to the optimized concentration (5 µL/well) with the HDAC assay buffer. The activity of JRM-28 was measured along with DTT control and DMSO as blank. After adding 5 µL of the diluted HDAC enzymes in designated wells, the 96-well plate (supplied with the kit) was incubated at 37 °C. Then, the reaction was initiated by adding 5 µL of diluted HDAC substrate to each well, followed by another incubation at 37 °C for 30 min. Next, 50 µL of the developer reagent was added to each well and incubated at room temperature for another 15 min. Finally, fluorescence was measured by a microplate absorbance spectrophotometer (PerkinElmer Enspire 2300 Multilabel Multimode Microplate Reader) with an excitation at λ = 485 nm and detection at λ = 528 nm.

[3] = target: T1, HDAC3 (Homo sapiens, UniProt O15379); test: Fluorimetric HDAC inhibition assay, HDAC3; format: biochemical; settings: reduced with DTT
T1 construct: purchased BPS Bioscience 50003
Procedure: as §1

HDAC2, sequence (Q92769 whole entry): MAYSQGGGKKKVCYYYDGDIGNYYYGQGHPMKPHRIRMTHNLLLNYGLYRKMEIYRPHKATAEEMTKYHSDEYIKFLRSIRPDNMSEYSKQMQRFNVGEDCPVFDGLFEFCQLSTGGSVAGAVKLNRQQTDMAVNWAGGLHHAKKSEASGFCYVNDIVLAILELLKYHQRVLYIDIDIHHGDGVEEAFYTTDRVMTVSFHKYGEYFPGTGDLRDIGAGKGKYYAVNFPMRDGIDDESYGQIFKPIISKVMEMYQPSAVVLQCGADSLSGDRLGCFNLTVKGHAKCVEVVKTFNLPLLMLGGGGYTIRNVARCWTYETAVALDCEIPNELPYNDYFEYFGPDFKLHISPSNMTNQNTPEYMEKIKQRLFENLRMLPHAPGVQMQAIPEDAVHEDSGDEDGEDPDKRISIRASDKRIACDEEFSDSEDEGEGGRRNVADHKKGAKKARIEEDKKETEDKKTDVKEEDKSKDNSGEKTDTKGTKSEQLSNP
T1 sequence (O15379 whole entry): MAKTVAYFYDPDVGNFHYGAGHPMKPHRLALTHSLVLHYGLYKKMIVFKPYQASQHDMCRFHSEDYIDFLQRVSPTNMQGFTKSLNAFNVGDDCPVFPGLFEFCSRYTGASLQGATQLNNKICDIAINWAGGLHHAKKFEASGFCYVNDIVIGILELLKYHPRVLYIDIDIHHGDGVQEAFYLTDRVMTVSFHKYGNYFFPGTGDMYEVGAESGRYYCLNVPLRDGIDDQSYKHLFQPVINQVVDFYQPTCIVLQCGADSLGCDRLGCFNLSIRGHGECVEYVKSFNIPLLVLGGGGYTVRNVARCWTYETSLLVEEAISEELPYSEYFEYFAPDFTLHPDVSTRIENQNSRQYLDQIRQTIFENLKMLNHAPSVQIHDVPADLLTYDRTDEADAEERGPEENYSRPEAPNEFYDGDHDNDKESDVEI
T1 sequence (Q9Y618 395-489 partner limits assumed): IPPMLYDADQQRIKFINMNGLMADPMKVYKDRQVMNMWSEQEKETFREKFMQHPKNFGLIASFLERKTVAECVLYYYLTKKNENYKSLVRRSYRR

In the case of CN(C(=O)CC(O)/C=C/CCSS(=O)(=O)CC/C=C/C(O)CC(=O)N(C)c1ccccc1)c1ccccc1 (stereo not drawn) [JRM-28, S-((E)-5-hydroxy-7-(methyl(phenyl)amino)-7-oxohept-3-en-1-yl) (E)-5-hydroxy-7-(methyl(phenyl)amino)-7-oxohept-3-ene-1-sulfonothioate], the “dendritic length / dendritic morphogenesis” value ([1]; 5 µM versus control, n = 200 per group) is reported as “augmented the dendritic morphogenesis”, the “dendritic pruning (MAP2-ir appendages)” value ([1]; 5 µM, 48 h (legend: 24 h)) is reported as “significantly stimulated dendritic pruning” and the “MAP2 expression (immunoblot)” value ([1]; 5 and 10 µM) is reported as “upregulated the expressions of MAP2”. For the same compound, the IC50 [2] was ~107 nM and 107 nM, the “Hill slope HDAC2 (fluorimetric)” value ([2]; listed as JRM-28 (JRM-28a+28b)) was −1.580 and the IC50 [3] was 279 nM. The “Hill coefficient HDAC3 (fluorimetric)” value ([3]; listed as JRM-28 (JRM-28a+28b)) was −4.663.
